# Molecular target: human mOR (Homo sapiens (Human), UniProt P35372)
# Assay: cell-based
# Details: not given
# human mOR, sequence (P35372 whole entry): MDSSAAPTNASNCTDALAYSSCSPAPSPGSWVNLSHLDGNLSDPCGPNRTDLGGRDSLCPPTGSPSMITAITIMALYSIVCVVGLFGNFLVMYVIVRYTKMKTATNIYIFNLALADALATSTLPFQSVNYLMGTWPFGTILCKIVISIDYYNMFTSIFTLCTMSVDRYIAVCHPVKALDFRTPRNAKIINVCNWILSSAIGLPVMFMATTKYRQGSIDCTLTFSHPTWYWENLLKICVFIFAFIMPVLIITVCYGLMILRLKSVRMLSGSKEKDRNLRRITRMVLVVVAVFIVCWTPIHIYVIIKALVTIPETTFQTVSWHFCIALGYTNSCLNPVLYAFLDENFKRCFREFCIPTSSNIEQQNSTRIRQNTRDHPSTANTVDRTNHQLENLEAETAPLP
row,Structure (SMILES),IC50 [nM]
1,"Cc1cc(O)ccc1C[C@@H](CNC(=O)C[C@H](c1cccnc1)C1(C(F)(F)F)CC1)N(C)C [Compound 269, (R)-N-((S)-2-(dimethylamino)-3-(4-hydroxy-2-methylphenyl)propyl)-3-(pyridin-3-yl)-3-(1-(trifluoromethyl)cyclopropyl)propanamide]",< 300
2,"Cc1cc(O)ccc1C[C@@H](CNC(=O)CC(c1ccncc1)C1(C(F)(F)F)CC1)N(C)C (stereo partly drawn) [Compound 270, N-((S)-2-(dimethylamino)-3-(4-hydroxy-2-methylphenyl)propyl)-3-(pyridin-4-yl)-3-(1-(trifluoromethyl)cyclopropyl)propanamide]",< 300
3,"Cc1cc(O)ccc1C[C@@H](CNC(=O)CC(c1ncccn1)C1(C(F)(F)F)CC1)N(C)C (stereo partly drawn) [Compound 271, N-((S)-2-(dimethylamino)-3-(4-hydroxy-2-methylphenyl)propyl)-3-(pyrimidin-2-yl)-3-(1-(trifluoromethyl)cyclopropyl)propanamide]",< 300
4,"Cc1cc(O)ccc1C[C@@H](CNC(=O)CC(c1cccnc1)C1(C(F)(F)F)CC1)N(C)C (stereo partly drawn) [Compound 272, N-((S)-2-(dimethylamino)-3-(4-hydroxy-2-methylphenyl)propyl)-3-(pyridin-3-yl)-3-(1-(trifluoromethyl)cyclopropyl)propanamide]",< 300
5,"Cc1cc(O)ccc1C[C@@H](CNC(=O)CC(c1ncc(Cl)cn1)C1(C(F)(F)F)CC1)N(C)C (stereo partly drawn) [Compound 274, 3-(5-chloropyridmidin-2-yl)-N-((S)-2-(dimethylamino)-3-(4-hydroxy-2-methylphenyl)propyl)-3-(1-(trifluoromethyl)cyclopropyl) propanamide]",< 300
6,"CC(C)[C@H](CC(=O)NC[C@H](Cc1ccc(O)c(Cl)c1)N(C)C)c1cccnc1 [Compound 276, (S)-N-((S)-3-(3-chloro-4-hydroxyphenyl)-2-(dimethylamino)propyl)-4-methyl-3-(pyridin-3-yl)pentanamide]",< 300
7,"CN(C)[C@H](CNC(=O)C[C@H](c1ccncc1)C1CC1)Cc1ccc(O)c(Cl)c1 [Compound 277, (S)-N-((S)-3-(3-chloro-4-hydroxyphenyl)-2-(dimethylamino)propyl)-3-cyclopropyl-3-(pyridin-4-yl)propanamide]",< 300
8,"CN(C)[C@H](CNC(=O)C[C@H](c1ccncc1)C1(C(F)(F)F)CC1)Cc1ccc(O)c(Cl)c1 [Compound 278, (R)-N-((S)-3-(3-chloro-4-hydroxyphenyl)-2-(dimethylamino)propyl)-3-(pyridin-4-yl)-3-(1-(trifluoromethyl)cyclopropyl)propanamide]",< 300
9,"CN(C)[C@H](CNC(=O)C[C@@H](CC1CC1)c1cccnc1)Cc1ccc(O)c(Cl)c1 [Compound 279, (R)-N-((S)-3-(3-chloro-4-hydroxyphenyl)-2-(dimethylamino)propyl)-4-cyclopropyl-3-(pyridin-3-yl)butanamide]",< 300
10,"CN(C)[C@H](CNC(=O)C[C@H](c1cccnc1)C1CC1)Cc1ccc(O)c(Cl)c1 [Compound 281, (S)-N-((S)-3-(3-chloro-4-hydroxyphenyl)-2-(dimethylamino)propyl)-3-cyclopropyl-3-(pyridin-3-yl)propanamide]",< 300
11,"CN(C)[C@H](CNC(=O)C[C@@H](CC1CC1)c1cncnc1)Cc1ccc(O)c(Cl)c1 [Compound 282, (R)-N-((S)-3-(3-chloro-4-hydroxyphenyl)-2-(dimethylamino)propyl)-4-cyclopropyl-3-(pyrimidin-5-yl)butanamide]",< 300
12,"Cc1ncc([C@@H](CC(=O)NC[C@H](Cc2ccc(O)c(Cl)c2)N(C)C)C2(C(F)(F)F)CC2)cn1 [Compound 283, (R)-N-((S)-3-(3-chloro-4-hydroxyphenyl)-2-(dimethylamino)propyl)-3-(2-methylpyrimidin-5-yl)-3-(1-(trifluoromethyl)cyclopropyl)propanamide]",< 300
13,"CN(C)[C@H](CNC(=O)CC(c1ccncc1)C1(C(F)(F)F)CC1)Cc1ccc(O)c(Cl)c1 (stereo partly drawn) [Compound 284, N-((S)-3-(3-chloro-4-hydroxyphenyl)-2-(dimethylamino)propyl)-3-(pyridin-4-yl)-3-(1-(trifluoromethyl)cyclopropyl)propanamide]",< 300
14,"CN(C)[C@H](CNC(=O)CC(c1ncccn1)C1(C(F)(F)F)CC1)Cc1ccc(O)c(Cl)c1 (stereo partly drawn) [Compound 285, N-((S)-3-(3-chloro-4-hydroxyphenyl)-2-(dimethylamino)propyl)-3-(pyrimidin-2-yl)-3-(1-(trifluoromethyl)cyclopropyl)propanamide]",< 300
15,"CN(C)[C@H](CNC(=O)C[C@H](CC1CC1)c1cccnc1)Cc1ccc(O)c(Cl)c1 [Compound 286, (S)-N-((S)-3-(3-chloro-4-hydroxyphenyl)-2-(dimethylamino)propyl)-4-cyclopropyl-3-(pyridin-3-yl)butanamide]",< 300
16,"CN(C)[C@H](CNC(=O)CC(c1cccnc1)C1(C(F)(F)F)CC1)Cc1ccc(O)c(Cl)c1 (stereo partly drawn) [Compound 287, N-((S)-3-(3-chloro-4-hydroxyphenyl)-2-(dimethylamino)propyl)-3-(pyridin-3-yl)-3-(1-(trifluoromethyl)cyclopropyl)propanamide]",< 300

row,Structure (SMILES),IC50 [nM]
1,"CN(C)[C@H](CNC(=O)C[C@H](c1cccnc1)C1(C(F)(F)F)CC1)Cc1ccc(O)c(F)c1 [Compound 290, (R)-N-((S)-2-(dimethylamino)-3-(3-fluoro-4-hydroxyphenyl)propyl)-3-(pyridin-3-yl)-3-(1-(trifluoromethyl)cyclopropyl)propanamide]",< 300
2,"CN(C)[C@H](CNC(=O)CC(c1cccnc1)C1(C(F)(F)F)CC1)Cc1ccc(O)cc1 (stereo partly drawn) [Compound 291, N-((S)-2-(dimethylamino)-3-(4-hydroxyphenyl)propyl)-3-(pyridin-3-yl)-3-(1-(trifluoromethyl)cyclopropyl)propanamide]",< 300
3,"Cc1ccc([C@@H](CC(=O)NC[C@H](Cc2ccc(O)cc2)N(C)C)C2(C(F)(F)F)CC2)s1 [Compound 293, (S)-N-((S)-2-(dimethylamino)-3-(4-hydroxyphenyl)propyl)-3-(5-methylthiophen-2-yl)-3-(1-(trifluoromethyl)cyclopropyl)propanamide]",< 300
4,"CN(C)[C@H](CNC(=O)C[C@H](c1ccsc1)C1(C(F)(F)F)CC1)Cc1ccc(O)cc1 [Compound 294, (S)-N-((S)-2-(dimethylamino)-3-(4-hydroxyphenyl)propyl)-3-(thiophen-3-yl)-3-(1-(trifluoromethyl)cyclopropyl)propanamide]",< 300
5,"Cc1ncc([C@@H](CC(=O)NC[C@H](Cc2ccc(O)cc2)N(C)C)C2(C(F)(F)F)CC2)s1 [Compound 295, (S)-N-((S)-2-(dimethylamino)-3-(4-hydroxyphenyl)propyl)-3-(2-methylthiazol-5-yl)-3-(1-(trifluoromethyl)cyclopropyl)propanamide]",< 300
6,"CN(C)[C@H](CNC(=O)C[C@H](c1cncs1)C1(C(F)(F)F)CC1)Cc1ccc(O)cc1 [Compound 296, (S)-N-((S)-2-(dimethylamino)-3-(4-hydroxyphenyl)propyl)-3-(thiazol-5-yl)-3-(1-(trifluoromethyl)cyclopropyl)propanamide]",< 300
7,"CC(C)C[C@H](CC(=O)NC[C@H](Cc1ccc(O)cc1)N(C)C)c1cccnc1 [Compound 297, (R)-N-((S)-2-(dimethylamino)-3-(4-hydroxyphenyl)propyl)-5-methyl-3-(pyridin-3-yl)hexanamide]",< 300
8,"CN(C)[C@H](CNC(=O)C[C@H](CC1CC1)c1ccncc1)Cc1ccc(O)cc1 [Compound 298, (S)-4-cyclopropyl-N-((S)-2-(dimethylamino)-3-(4-hydroxyphenyl)propyl)-3-(pyridin-4-yl)butanamide]",< 300
9,"Cc1cc([C@@H](CC(=O)NC[C@H](Cc2ccc(O)cc2)N(C)C)C2(C(F)(F)F)CC2)ccn1 [Compound 299, (R)-N-((S)-2-(dimethylamino)-3-(4-hydroxyphenyl)propyl)-3-(2-methylpyridin-4-yl)-3-(1-(trifluoromethyl)cyclopropyl) propanamide]",< 300
10,"Cc1cncc([C@@H](CC(=O)NC[C@H](Cc2ccc(O)cc2)N(C)C)C2(C(F)(F)F)CC2)c1 [Compound 300, (R)-N-((S)-2-(dimethylamino)-3-(4-hydroxyphenyl)propyl)-3-(5-methylpyridin-3-yl)-3-(1-(trifluoromethyl)cyclopropyl)propanamide]",< 300
11,"Cc1ccc([C@@H](CC(=O)NC[C@H](Cc2ccc(O)cc2)N(C)C)C2(C(F)(F)F)CC2)cn1 [Compound 302, (R)-N-((S)-2-(dimethylamino)-3-(4-hydroxyphenyl)propyl)-3-(6-methylpyridin-3-yl)-3-(1-(trifluoromethyl)cyclopropyl) propanamide]",< 300
12,"CN(C)[C@H](CNC(=O)C[C@H](c1cccnc1)C1(C)CC1)Cc1ccc(O)cc1 [Compound 303, (S)-N-((S)-2-(dimethylamino)-3-(4-hydroxyphenyl)propyl)-3-(1-methylcyclopropyl)-3-(pyridin-3-yl)propanamide]",< 300
13,"CC(C)[C@H](CC(=O)NC[C@H](Cc1ccc(O)cc1)N(C)C)c1cccnc1 [Compound 304, (S)-N-((S)-2-(dimethylamino)-3-(4-hydroxyphenyl)propyl)-4-methyl-3-(pyridin-3-yl)pentanamide]",< 300
14,"CN(C)[C@H](CNC(=O)C[C@H](c1cccnc1)C1(C(F)(F)F)CC1)Cc1ccc(O)cc1 [Compound 306, (R)-N-((S)-2-(dimethylamino)-3-(4-hydroxyphenyl)propyl)-3-(pyridin-3-yl)-3-(1-(trifluoromethyl)cyclopropyl)propanamide]",< 300
15,"CN(C)[C@H](CNC(=O)C[C@@H](CC1CC1)c1cncnc1)Cc1ccc(O)cc1 [Compound 307, (R)-4-cyclopropyl-N-((S)-2-(dimethylamino)-3-(4-hydroxyphenyl)propyl)-3-(pyrimidin-5-yl)butanamide]",< 300

# Same assay, conditions: CHO Tag-lite human mOR stable cell line; forskolin 4 μM and DAMGO at EC90; read-out: mOR cAMP Antagonist Assay IC50
row,Structure (SMILES),IC50 [nM]
1,"CN(C)[C@H](CNC(=O)C[C@H](c1cncs1)C1CC1)Cc1ccc(O)cc1 [Compound 292, (S)-3-cyclopropyl-N-((S)-2-(dimethylamino)-3-(4-hydroxyphenyl)propyl)-3-(thiazol-5-yl)propanamide]",300 to 3000
